ChEMBL document CHEMBL5291721, “A preclinical secondary pharmacology resource illuminates target-adverse drug reaction associations of marketed drugs” (Nat Commun, 2023)

Target: D(1A) dopamine receptor (Homo sapiens, UniProt P21728)
Format: functional, cell-based
Also: assay procedure not described here.

Sequence of D(1A) dopamine receptor (P21728 whole entry): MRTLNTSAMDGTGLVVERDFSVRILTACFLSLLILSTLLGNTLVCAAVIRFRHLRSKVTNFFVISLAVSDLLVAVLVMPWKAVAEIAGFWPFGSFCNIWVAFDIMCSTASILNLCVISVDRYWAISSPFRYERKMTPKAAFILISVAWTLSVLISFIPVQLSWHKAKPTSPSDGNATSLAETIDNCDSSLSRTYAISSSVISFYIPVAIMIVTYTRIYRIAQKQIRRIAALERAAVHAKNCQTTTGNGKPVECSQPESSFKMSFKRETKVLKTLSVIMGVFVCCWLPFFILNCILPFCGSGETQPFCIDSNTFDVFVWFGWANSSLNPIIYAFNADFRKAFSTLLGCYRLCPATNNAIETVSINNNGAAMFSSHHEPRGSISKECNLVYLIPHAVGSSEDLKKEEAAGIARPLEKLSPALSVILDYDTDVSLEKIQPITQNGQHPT

C[N+](C)(C)CCOC(N)=O [CARBAMOYLCHOLINE]
AC50: > 30 µM
